This is an account of results in ChEMBL document CHEMBL1201862, “PubChem BioAssay data set” (2004).

Test [1] addresses Glucose-6-phosphate 1-dehydrogenase (Homo sapiens, UniProt P11413). Nature of the test: inhibition of Homo sapiens G6PD, dose series – biochemical, fluorescence, selectivity assay for P. falciparum G6PD inhibitor project, dose response (AID 504792). The test is classed as functional.
Test [2] deals with Genome polyprotein (dengue virus type 2, UniProt P29990). Nature of the test: flavivirus cap methylation enzyme inhibition – biochemical, confirmation dose response, primary screen (AID 588689). The test is classed as functional.
Chain of Genome polyprotein (P29990 2492-3391 limits assumed): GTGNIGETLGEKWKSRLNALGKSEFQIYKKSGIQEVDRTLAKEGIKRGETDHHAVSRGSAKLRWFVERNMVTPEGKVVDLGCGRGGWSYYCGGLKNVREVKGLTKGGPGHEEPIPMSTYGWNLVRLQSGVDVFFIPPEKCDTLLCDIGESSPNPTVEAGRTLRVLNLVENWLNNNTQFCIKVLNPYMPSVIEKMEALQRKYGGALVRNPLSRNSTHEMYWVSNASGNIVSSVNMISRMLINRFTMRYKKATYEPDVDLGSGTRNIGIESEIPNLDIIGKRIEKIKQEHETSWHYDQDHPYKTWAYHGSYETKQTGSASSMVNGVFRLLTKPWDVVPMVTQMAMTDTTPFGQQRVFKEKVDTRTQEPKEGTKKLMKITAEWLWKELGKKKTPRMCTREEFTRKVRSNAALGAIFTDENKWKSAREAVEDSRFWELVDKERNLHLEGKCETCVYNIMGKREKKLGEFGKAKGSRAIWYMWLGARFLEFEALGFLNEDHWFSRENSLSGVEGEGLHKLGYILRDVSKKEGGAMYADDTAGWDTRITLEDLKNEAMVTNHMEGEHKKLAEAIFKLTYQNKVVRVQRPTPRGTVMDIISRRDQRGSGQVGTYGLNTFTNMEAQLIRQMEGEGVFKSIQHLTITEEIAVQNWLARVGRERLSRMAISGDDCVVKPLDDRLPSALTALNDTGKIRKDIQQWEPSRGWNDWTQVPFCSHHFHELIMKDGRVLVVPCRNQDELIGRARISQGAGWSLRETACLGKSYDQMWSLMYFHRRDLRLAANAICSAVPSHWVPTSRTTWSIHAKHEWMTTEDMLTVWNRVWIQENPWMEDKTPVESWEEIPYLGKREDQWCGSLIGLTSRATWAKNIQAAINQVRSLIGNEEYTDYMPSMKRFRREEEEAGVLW
Test [3] can be described thus: blockers of HIV-1 envelope-mediated cell-cell fusion – cherry-pick, dose response (AID 652057). Format: functional, cell-based.
Test [4] in a line: HIV-1 AD8 envelope cell-cell fusion blockers – cherry-pick, dose response (AID 652062).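 Note: luciferase signal from cell-cell fusion driven by HIV-1 clade B AD8 Env; potency is for inhibitors of fusion seen as a drop in luminescence.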 Format: functional, cell-based.
Test [5] in a line: off-target signal loss in HeLa-CEM21 co-culture – HeLa F-luc CTL cells, cherry-picked, counter-screen for HIV-1 Env fusion inhibitor project, dose response (AID 652040).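 Note: potency for signal decrease marking cytotoxic or nonspecific inhibition.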 Format: functional, cell-based.
The nature of test [6]: blockers of HIV-1 ZM109 envelope-driven cell-cell fusion – HeLa effector, CEM target cells, luciferase, cherry-pick, dose response (AID 652058).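 Note: luciferase signal from HIV-1 Env mediated cell-cell fusion of effector and target cells.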 Format: functional, cell-based.
In test [7] the target is T1, Fatty acid synthase (Homo sapiens, UniProt P49327). Nature of the test: inhibition of human FAS-TE enzyme activity – biochemical, endpoint fluorescence intensity, uHTS hits, dose response (AID 624327).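 Note: fluorescence from hydrolysis of an O-methyl fluorescein acyl ester substrate by the enzyme.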 Format: functional.
T1 sequence (P49327 whole entry): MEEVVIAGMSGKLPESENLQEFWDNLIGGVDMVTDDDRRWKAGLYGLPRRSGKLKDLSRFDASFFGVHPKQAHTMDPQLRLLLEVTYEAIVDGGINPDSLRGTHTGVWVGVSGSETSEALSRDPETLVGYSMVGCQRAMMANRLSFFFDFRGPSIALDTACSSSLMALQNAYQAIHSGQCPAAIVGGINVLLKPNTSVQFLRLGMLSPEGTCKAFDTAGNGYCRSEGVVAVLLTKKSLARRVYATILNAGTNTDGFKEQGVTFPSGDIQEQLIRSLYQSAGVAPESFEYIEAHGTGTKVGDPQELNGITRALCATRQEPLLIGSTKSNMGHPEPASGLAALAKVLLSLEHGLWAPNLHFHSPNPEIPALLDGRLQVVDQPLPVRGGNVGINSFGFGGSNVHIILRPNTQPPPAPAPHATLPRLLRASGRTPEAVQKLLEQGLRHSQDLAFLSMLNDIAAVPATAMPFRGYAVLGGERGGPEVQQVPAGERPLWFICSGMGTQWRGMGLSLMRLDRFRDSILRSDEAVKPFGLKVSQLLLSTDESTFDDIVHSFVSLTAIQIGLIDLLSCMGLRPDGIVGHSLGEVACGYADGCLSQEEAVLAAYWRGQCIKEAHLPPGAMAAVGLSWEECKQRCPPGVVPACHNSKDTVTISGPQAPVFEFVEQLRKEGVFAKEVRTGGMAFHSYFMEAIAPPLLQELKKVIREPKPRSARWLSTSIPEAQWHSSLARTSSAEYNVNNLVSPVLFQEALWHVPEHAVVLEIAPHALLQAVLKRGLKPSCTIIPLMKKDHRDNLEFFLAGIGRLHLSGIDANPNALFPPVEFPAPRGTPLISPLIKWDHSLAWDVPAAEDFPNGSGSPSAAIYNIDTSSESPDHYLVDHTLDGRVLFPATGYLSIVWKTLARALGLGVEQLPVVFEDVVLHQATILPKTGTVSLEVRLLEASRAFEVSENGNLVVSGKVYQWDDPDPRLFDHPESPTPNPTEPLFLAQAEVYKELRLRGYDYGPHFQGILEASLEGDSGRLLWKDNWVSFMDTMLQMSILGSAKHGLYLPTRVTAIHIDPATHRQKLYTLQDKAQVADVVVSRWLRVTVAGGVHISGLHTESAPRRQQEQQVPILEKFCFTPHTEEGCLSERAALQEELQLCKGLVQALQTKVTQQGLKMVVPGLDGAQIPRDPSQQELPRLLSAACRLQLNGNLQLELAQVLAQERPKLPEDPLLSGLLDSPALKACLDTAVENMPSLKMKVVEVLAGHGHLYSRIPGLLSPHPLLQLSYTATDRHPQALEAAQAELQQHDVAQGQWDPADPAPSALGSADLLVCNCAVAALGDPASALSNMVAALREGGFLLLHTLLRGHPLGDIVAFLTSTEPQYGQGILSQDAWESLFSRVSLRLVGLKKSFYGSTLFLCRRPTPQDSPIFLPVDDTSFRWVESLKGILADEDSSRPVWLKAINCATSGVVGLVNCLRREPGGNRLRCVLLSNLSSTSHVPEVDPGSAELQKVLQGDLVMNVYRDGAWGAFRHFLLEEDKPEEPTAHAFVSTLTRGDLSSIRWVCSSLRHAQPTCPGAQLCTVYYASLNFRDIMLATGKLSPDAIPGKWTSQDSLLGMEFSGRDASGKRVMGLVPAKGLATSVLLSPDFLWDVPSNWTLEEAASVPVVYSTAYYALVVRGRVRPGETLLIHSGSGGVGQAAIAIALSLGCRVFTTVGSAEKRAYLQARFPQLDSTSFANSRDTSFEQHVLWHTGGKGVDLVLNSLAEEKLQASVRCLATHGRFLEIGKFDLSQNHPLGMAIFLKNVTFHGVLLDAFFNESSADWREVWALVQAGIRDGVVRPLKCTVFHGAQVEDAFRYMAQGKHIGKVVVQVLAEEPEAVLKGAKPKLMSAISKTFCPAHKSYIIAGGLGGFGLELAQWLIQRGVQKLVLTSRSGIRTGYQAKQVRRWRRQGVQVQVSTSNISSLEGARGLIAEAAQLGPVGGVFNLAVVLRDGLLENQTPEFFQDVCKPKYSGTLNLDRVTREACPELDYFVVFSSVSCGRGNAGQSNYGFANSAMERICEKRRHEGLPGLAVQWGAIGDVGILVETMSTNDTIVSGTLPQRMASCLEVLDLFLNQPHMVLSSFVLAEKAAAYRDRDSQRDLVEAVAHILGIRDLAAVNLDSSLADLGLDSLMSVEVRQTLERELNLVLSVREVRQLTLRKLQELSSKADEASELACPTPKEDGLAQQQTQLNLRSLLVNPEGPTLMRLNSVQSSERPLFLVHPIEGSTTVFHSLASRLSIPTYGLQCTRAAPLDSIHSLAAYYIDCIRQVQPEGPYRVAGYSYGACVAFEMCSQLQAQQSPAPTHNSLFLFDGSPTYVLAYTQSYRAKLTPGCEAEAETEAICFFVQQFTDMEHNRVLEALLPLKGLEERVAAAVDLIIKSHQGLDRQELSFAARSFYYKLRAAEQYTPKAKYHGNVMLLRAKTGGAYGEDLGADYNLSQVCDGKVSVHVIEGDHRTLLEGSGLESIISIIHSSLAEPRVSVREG
Test [8] deals with T1, Fatty acid synthase. Nature of the test: inhibition of human FAS-TE enzyme activity – biochemical, kinetic fluorescence intensity, dose response (AID 624326).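 Note: rate of fluorescence rise from hydrolysis of a fluorogenic O-methyl fluorescein ester substrate.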 Format: functional.
For test [9], the target named is T2, Apoptotic protease-activating factor 1 (Homo sapiens, UniProt O14727).
T2 sequence (O14727 whole entry): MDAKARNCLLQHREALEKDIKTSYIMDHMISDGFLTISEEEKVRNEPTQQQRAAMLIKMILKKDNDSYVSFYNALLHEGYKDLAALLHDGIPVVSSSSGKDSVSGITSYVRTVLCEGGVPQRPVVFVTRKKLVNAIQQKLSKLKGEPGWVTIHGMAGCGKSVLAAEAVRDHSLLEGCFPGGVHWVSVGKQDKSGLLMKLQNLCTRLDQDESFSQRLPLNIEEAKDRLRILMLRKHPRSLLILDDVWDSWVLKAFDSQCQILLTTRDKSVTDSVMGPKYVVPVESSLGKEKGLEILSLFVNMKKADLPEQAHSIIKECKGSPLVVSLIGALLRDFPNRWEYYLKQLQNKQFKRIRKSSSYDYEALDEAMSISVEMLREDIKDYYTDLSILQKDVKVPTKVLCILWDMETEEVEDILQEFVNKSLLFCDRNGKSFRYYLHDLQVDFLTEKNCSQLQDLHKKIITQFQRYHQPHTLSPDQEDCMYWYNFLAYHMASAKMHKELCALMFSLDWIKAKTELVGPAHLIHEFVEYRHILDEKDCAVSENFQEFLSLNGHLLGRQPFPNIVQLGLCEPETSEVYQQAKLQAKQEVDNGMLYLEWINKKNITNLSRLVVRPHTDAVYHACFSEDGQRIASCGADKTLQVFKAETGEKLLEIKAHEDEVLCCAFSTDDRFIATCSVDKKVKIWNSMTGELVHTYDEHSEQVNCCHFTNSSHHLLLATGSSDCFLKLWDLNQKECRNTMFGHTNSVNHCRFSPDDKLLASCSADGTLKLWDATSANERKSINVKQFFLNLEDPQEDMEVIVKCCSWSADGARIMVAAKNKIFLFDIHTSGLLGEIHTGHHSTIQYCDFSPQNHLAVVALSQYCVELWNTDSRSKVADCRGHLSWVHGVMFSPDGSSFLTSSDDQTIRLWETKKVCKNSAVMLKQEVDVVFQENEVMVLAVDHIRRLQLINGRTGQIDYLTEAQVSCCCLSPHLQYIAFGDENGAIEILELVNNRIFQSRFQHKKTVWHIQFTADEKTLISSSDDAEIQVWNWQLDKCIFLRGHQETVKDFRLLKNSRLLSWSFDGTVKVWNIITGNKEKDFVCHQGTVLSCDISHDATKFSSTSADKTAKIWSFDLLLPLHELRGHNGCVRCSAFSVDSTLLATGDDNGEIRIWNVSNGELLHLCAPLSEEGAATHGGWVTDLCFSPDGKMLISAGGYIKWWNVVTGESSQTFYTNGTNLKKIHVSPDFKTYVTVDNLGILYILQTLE
The test is classed as functional.

Test [10] deals with Vero. Nature of the test: cells. The conditions noted are these: Chlorocebus sabaeus. The test is classed as functional.
For test [11], the target named is T3, Replicative DNA helicase DnaB (Mycobacterium tuberculosis, UniProt P9WMR3).
T3 sequence (P9WMR3 whole entry): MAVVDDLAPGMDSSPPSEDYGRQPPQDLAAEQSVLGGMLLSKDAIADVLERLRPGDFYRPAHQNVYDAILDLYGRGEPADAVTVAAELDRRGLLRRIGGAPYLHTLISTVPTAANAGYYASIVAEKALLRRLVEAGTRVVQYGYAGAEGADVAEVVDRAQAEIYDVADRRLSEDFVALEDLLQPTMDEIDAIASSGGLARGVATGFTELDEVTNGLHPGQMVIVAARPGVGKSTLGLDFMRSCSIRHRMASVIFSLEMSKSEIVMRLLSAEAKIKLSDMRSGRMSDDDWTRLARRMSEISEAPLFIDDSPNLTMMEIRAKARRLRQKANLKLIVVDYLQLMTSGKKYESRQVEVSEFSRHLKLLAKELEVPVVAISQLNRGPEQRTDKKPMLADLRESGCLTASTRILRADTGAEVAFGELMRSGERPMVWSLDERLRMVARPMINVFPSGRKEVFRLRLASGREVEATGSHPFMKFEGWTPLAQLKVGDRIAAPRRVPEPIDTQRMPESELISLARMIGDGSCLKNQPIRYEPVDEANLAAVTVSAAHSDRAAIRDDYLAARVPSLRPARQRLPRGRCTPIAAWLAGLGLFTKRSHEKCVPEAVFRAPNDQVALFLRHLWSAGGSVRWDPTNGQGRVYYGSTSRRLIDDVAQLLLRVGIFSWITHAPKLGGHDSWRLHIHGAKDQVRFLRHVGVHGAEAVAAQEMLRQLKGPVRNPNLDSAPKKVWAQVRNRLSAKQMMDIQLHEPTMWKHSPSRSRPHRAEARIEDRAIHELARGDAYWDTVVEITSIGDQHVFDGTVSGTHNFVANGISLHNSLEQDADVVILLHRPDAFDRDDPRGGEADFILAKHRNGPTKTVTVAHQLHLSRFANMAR
Nature of the test: DnaB intein splicing inhibitors, dose response, biochemical, cell-free fluorescence (AID 449749). Format: functional.

In test [12] the target is T4, Protein RecA (Mycobacterium tuberculosis, UniProt P9WHJ3).
T4 sequence (P9WHJ3 whole entry): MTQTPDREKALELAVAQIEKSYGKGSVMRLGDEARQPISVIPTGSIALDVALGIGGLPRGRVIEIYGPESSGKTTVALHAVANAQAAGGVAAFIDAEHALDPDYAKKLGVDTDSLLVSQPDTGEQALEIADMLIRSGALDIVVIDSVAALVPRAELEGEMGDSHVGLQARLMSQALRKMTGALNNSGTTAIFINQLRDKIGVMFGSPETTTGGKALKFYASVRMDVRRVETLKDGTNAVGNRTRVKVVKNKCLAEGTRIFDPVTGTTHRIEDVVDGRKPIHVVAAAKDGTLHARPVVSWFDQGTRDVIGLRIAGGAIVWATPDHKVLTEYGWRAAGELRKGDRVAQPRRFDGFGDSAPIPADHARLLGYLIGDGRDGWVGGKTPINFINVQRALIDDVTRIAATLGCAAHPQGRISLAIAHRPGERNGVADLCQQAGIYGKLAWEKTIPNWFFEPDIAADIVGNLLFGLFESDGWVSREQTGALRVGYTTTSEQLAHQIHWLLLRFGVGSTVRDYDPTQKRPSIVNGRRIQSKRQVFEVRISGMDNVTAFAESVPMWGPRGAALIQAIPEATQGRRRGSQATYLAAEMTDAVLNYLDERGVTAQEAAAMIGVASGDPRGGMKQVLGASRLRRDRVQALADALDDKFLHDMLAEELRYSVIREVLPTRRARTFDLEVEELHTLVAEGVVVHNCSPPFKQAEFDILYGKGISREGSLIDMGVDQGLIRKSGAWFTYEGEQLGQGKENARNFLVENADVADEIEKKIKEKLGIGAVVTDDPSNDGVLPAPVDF
Nature of the test: Fluorescence Cell-Free Homogeneous Dose Retest to Identify Inhibitors of RecA-Intein Splicing Activity. [Related pubchem assays (depositor defined):AID2097, AID2223, AID489010, AID492950]. The test is classed as functional.

Test [13] addresses T5, High affinity choline transporter 1 (Homo sapiens, UniProt Q9GZV3).
T5 sequence (Q9GZV3 whole entry): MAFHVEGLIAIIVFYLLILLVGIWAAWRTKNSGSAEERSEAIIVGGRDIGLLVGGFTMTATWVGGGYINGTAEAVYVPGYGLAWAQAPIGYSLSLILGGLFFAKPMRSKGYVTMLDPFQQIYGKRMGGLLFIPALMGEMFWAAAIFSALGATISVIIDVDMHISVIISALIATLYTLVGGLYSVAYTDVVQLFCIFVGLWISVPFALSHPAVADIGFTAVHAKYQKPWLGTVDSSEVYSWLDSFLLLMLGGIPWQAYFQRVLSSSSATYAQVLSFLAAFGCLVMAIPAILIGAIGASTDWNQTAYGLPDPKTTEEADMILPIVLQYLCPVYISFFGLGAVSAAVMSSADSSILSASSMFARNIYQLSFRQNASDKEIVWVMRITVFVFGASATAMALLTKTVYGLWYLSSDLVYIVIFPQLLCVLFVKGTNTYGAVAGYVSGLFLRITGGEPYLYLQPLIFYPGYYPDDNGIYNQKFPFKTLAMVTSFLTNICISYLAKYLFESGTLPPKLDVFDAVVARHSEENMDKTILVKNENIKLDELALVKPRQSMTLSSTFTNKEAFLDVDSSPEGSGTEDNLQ
Nature of the test: human choline transporter blockers, potency – cell-based, 5-point CRC, membrane potential dye, dose response (AID 504840). The test is classed as functional.

A short description of test [14]: viability loss in CEM21 cells – cell-based, CellTiter-Glo luminescence, cherry-picked, cytotoxicity control for viral fusion inhibitor project, dose response (AID 652042).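 Note: potency for signal decrease meaning cytotoxicity.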 Format: functional.

Each structure is given as a SMILES string. Active and inactive are the calls of the source. Bounds are passed on as bounds.

One may read the IC50 as the concentration that inhibits the measured activity by half. As usually defined, the AC50 is the concentration at which the activity in the assay is half-maximal. As a reminder, the CC50 is the concentration giving 50% cytotoxicity. As a reminder, the EC50 is the midpoint of the concentration-response curve.

Chain of Glucose-6-phosphate 1-dehydrogenase (P11413 whole entry): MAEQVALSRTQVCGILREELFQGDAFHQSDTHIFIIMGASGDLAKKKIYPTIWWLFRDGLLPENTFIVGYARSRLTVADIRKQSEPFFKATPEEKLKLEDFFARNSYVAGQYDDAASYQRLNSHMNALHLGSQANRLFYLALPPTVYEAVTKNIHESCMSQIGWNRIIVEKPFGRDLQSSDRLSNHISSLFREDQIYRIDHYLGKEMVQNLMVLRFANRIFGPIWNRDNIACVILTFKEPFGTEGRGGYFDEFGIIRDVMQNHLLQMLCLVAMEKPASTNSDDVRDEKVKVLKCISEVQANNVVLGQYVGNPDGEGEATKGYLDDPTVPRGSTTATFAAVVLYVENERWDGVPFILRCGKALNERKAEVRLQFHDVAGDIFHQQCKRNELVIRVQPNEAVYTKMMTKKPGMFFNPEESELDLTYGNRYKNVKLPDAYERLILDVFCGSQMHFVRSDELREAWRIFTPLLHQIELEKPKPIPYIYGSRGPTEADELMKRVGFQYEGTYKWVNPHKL

`O=C(O)C(Cc1ccccc1)N1C(=O)C=CC1=O` (centres undefined): the IC50 in [1] is > 80 µM (inactive); in [2] it was > 100 µM (active).
`Cc1ccc(S(=O)(=O)N2CCC(=O)N(CCOC(=O)Nc3cccc(Cl)c3)CC2)cc1`: the AC50 in test [3] was 3.12 µM (active); in test [4] it was 7.72 µM (active); in test [5] it was 4.11 µM (active); in test [6] it was 4.6 µM (active).
`O=C(/C=C/c1cc([N+](=O)[O-])ccc1OC(F)F)Nc1cccc2ccccc12`: the IC50 in test [7] was 24.6 µM (inactive); in [8], 61.9 µM (inactive).
`Cc1cc(C)c(S(=O)(=O)/N=C2\C=C(NS(=O)(=O)c3ccccc3)C(=O)c3ccccc32)c(C)c1`: the IC50 in test [9] is 31.1 µM (active).
With `CCCCCCN1C[C@@H](n2cc(COC(=O)c3ccccc3)nn2)[C@H](O)C[C@@H]1c1ccc(C)cc1`, the 50% cytotoxic concentration (CC50) in test [10] was > 25 µM (active).
As for `C#CCN(C[C@H]1[C@H](OC(=O)NC2CCCC2)[C@H](OC(=O)NC2CCCC2)C[C@H]2C(=O)N(c3ccccc3)C(=O)[C@@H]12)S(=O)(=O)c1ccc(C)cc1`, the results for the IC50 in test [7] and in test [8] were 47.5 µM (inactive) and 23 µM (inactive), respectively.
`CCN(Cc1ccccc1)S(=O)(=O)c1ccc(C(=O)N(CCCN(C)C)c2nc3ccc(F)cc3s2)cc1`: the CC50 in test [10] is > 25 µM (active).
Consider `CC(=O)N(C1=C(N)C(=O)c2ccccc2C1=O)c1ccccc1`, for which, in test [11], the AC50 was 3.46 µM (active). Besides, in test [12], the EC50 is 2.18 µM (active). For the same molecule, the IC50 in test [9] is 10.4 µM (active).
Take `CCCCc1ccc(NC(S)=NCC2CCCO2)cc1` (centres undefined): the IC50 in [13] is 15.8 µM (active).
Still for that read-out and setting: with `Fc1ccc(-c2nc3c(-c4ccccc4)cnn3cc2CCN2CCOCC2)cc1` the figure was 13.2 µM (active).
Turning to `CCOC(=O)c1c(-c2ccc(C)cc2C)csc1NC(=O)CSc1nnnn1C`, the CC50 in test [10] is 23.2 µM (active).
For `C[C@H](CO)N1C[C@H](C)[C@@H](CN(C)C(=O)NC2CCCCC2)Oc2c(NC(=O)Nc3ccccc3)cccc2C1=O`, the IC50 in test [7] was 4.16 µM (active); in test [8], 3.04 µM (active).
The corresponding values for `CCN1CCN(S(=O)(=O)c2ccc(Cl)c(C(=O)N(C)Cc3ccc(C(C)(C)C)cc3)c2)CC1` are 13.5 µM (active) and 17.3 µM (active).
In the case of `COc1ccc(C(O)(CCC(C)C)C(CN2CCOCC2)c2ccccc2)cc1` (centres undefined), the concentration at half-maximal activity (AC50) in test [3] was 5.79 µM (active); in [4], 40.3 µM (active); in test [5] it was 23.8 µM (active); in [6] it was 23.3 µM (active); in test [14], 51.9 µM (active).
On to `Sc1nc2c[nH]c(S)nc-2n1`, for which the IC50 in test [1] was > 80 µM (inactive).
